Test results from ChEMBL document CHEMBL1201862, “PubChem BioAssay data set” (2004).
Calls of active or inactive are those of the source.

Columns and labels:
[1] = target: T1, Tyrosine-protein phosphatase non-receptor type 11 (Homo sapiens, UniProt Q06124); test: PTPN11 enzyme inhibitors – biochemical, selectivity assay for STEP inhibitor project, dose response (AID 602367); assay type: functional; conditions: read-out: IC50_Mean
T1 sequence (Q06124 whole entry): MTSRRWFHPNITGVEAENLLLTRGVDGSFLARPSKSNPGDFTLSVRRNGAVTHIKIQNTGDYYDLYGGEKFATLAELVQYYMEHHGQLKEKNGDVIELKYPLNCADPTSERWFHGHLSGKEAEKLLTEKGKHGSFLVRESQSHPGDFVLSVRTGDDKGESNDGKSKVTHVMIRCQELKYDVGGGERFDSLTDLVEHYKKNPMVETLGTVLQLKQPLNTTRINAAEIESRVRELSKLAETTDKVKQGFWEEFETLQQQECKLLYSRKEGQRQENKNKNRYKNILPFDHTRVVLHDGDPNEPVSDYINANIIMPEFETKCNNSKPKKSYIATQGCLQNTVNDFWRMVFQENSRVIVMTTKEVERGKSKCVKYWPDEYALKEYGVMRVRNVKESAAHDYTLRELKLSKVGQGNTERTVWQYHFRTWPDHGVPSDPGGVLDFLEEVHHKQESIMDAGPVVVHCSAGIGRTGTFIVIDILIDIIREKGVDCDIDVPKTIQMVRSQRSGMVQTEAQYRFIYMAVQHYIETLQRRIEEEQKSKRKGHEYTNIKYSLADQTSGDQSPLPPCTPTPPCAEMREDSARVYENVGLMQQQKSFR

[2] = target: Dual specificity protein phosphatase 3 (Homo sapiens, UniProt P51452); test: VHR phosphatase inhibition, dose response, selectivity assay for STEP inhibitor project, biochemical (AID 602374); assay type: functional; conditions: read-out: IC50_Mean
Dual specificity protein phosphatase 3, sequence (P51452 whole entry): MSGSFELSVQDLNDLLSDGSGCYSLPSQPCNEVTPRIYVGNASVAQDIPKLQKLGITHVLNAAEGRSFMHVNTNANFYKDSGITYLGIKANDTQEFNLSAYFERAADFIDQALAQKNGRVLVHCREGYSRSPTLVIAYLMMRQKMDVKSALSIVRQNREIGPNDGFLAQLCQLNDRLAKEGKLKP

[3] = target: T2, Tyrosine-protein phosphatase non-receptor type 5 (Homo sapiens, UniProt P54829); test: PTPN5 enzyme inhibition – biochemical, fluorescence intensity, uHTS hits, confirmation (AID 602372); assay type: functional; conditions: read-out: IC50_Mean
T2 sequence (P54829 whole entry): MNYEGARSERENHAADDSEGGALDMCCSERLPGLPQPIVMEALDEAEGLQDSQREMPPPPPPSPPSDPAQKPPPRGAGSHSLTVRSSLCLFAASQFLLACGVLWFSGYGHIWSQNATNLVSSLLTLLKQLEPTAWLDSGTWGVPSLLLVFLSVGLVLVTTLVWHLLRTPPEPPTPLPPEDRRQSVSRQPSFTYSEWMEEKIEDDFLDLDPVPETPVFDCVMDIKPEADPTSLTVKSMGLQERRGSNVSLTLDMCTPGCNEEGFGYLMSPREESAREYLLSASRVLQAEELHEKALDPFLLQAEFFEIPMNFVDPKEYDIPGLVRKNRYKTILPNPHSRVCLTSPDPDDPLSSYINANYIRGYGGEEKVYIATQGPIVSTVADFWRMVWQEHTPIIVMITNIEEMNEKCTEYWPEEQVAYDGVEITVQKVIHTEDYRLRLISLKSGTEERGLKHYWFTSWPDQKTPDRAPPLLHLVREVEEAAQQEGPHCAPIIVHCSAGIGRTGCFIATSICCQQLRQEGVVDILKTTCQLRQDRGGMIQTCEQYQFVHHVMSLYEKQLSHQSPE

Cytochrome P450 1A2 = target: T3, Cytochrome P450 1A2 (Homo sapiens, UniProt P05177);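 further: PubChem cytochrome P450 panel assay, CYP1A2 panel member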
T3 sequence (P05177 whole entry): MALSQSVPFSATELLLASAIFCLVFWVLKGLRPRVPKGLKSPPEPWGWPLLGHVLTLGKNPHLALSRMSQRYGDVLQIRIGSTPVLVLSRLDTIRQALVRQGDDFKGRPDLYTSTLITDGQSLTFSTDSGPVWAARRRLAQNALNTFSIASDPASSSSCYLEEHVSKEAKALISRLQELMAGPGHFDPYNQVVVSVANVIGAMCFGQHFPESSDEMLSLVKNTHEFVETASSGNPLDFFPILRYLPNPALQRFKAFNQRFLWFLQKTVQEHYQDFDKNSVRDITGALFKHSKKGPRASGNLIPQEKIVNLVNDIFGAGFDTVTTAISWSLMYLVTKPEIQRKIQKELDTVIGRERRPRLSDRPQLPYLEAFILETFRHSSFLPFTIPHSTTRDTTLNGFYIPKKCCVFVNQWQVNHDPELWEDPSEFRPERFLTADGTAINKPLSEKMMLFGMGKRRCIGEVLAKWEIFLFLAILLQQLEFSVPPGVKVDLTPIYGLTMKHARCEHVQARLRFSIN

Orexin receptor type 2 [4] = target: T4, Orexin receptor type 2 (Homo sapiens, UniProt O43614); test: Counterscreen assay for antagonists of the orexin 1 receptor (OX1R; HCRTR1): Fluorescence-based cell-based dose response assay for antagonists of the orexin 2 receptor (OX2R; HCRTR2), run by assay provider.; assay type: functional
T4 sequence (O43614 whole entry): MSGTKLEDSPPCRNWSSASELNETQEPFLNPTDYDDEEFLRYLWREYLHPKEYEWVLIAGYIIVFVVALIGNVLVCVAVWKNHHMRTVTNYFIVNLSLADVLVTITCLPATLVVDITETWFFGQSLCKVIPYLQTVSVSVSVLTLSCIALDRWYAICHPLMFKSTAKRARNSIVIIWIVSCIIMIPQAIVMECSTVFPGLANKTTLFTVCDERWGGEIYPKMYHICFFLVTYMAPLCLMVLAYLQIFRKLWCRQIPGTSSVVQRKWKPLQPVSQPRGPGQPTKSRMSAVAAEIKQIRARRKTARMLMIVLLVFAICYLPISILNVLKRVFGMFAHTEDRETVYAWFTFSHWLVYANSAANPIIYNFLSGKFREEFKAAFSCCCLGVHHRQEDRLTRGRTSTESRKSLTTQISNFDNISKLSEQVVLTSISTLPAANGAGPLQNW

CHO-K1 = test: (§1) Counterscreen for antagonists of the orexin 1 receptor (OX1R; HCRTR1): Homogeneous time resolved fluorescence (HTRF)-based cell-based dose response assay to identify antagonists of the parental CHO-K1 cell line. [Related pubchem assays (depositor defined):AID434989, AID435008, AID463079, AID485270, AID492963, AID492964, AID492965, AID493232, AID504699, AID504701]; assay type: functional; conditions: Cricetulus griseus
[5] = target: T5, Orexin/Hypocretin receptor type 1 (Homo sapiens, UniProt O43613); test: Homogeneous Time Resolved Fluorescence (HTRF)-based cell-based high throughput dose response assay for antagonists of the orexin 1 receptor (OX1R; HCRTR1). [Related pubchem assays (depositor defined):AID434989, AID435008, AID463079, AID485270, AID492963, AID492964, AID492965, AID493232, AID504717, AID504718]; assay type: functional
T5 sequence (O43613 whole entry): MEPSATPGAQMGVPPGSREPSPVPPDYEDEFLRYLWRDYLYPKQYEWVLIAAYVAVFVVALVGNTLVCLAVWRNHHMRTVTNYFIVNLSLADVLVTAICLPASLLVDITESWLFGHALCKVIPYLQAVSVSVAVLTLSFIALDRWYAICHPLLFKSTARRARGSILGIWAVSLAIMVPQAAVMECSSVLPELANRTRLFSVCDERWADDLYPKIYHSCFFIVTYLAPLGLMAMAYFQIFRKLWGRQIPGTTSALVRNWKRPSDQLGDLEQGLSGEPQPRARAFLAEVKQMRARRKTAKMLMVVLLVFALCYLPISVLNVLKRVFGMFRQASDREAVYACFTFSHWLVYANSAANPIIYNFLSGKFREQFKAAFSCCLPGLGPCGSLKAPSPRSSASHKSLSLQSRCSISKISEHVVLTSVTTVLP

Orexin receptor type 2 [6] = target: T4, Orexin receptor type 2; test: Counterscreen assay for antagonists of the orexin 1 receptor (OX1R; HCRTR1): Homogeneous Time Resolved Fluorescence (HTRF)-based cell-based dose response assay for antagonists of the orexin 2 receptor (OX2R; HCRTR2), run by assay provider.; assay type: functional
[7] = target: T5, Orexin/Hypocretin receptor type 1; test: Fluorescence-based cell-based high throughput dose response assay for antagonists of the orexin 1 receptor (OX1R; HCRTR1). [Related pubchem assays (depositor defined):AID434989, AID435008, AID463079, AID485270, AID492963, AID492964, AID492965, AID493232, AID504717, AID504718]; assay type: functional
[8] = as §1, with “Fluorescence-based” for “Homogeneous time resolved fluorescence (HTRF)-based”, “cell-based high throughput” for “cell-based”, “CHO” for “CHO-K1”; assay type: functional
[9] = target: T6, Apoptotic protease-activating factor 1 (Homo sapiens, UniProt O14727); test: SAR analysis of small molecule Activators of Apaf-1 in a Fluorescent assay.; assay type: functional; conditions: read-out: EC50_Mean;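 further: caspase-3 cleavage of fluorogenic Rh110 DEVD substrate downstream of apoptosome activation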
T6 sequence (O14727 whole entry): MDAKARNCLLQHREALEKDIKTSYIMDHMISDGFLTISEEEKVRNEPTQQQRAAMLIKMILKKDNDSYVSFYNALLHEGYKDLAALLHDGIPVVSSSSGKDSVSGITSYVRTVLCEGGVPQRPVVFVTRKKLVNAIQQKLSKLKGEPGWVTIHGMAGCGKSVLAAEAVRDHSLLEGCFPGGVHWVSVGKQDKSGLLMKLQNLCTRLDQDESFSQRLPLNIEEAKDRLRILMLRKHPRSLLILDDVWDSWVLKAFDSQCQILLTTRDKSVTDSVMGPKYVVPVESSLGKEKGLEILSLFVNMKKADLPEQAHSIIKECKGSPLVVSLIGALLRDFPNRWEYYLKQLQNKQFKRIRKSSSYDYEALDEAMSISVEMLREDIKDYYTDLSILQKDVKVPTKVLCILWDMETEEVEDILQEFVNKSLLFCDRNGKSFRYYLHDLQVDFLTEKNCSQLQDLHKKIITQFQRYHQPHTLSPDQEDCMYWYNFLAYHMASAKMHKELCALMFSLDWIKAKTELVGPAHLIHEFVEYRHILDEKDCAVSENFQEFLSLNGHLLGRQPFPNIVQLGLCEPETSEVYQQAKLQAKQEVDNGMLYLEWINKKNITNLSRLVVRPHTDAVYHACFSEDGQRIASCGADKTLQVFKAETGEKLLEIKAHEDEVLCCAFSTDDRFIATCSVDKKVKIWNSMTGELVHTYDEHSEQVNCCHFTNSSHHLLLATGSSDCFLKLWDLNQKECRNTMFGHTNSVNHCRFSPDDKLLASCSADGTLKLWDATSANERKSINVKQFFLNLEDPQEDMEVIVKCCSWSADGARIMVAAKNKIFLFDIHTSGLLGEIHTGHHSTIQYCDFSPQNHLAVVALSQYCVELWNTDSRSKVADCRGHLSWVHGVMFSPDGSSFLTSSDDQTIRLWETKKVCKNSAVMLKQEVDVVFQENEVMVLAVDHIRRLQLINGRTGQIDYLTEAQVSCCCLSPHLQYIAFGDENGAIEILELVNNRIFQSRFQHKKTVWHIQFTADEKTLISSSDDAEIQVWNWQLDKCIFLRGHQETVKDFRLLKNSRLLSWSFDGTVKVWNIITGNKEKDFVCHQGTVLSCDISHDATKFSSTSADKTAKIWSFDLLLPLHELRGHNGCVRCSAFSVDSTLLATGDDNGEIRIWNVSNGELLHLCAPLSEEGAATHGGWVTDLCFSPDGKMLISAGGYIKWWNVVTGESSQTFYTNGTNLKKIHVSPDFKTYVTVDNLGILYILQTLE

[10] = target: T7, Mitochondrial peptide methionine sulfoxide reductase (Bos taurus, UniProt P54149); assay type: functional;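 further: absorbance read-out, biochemical high-throughput dose-response screen for MsrA inhibitors, confirmatory; recombinant bovine MsrA coupled to E. coli TrxB with NADPH and selenocystamine; potency is for inhibitors of MsrA activity on DMSO substrate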
T7 sequence (P54149 whole entry): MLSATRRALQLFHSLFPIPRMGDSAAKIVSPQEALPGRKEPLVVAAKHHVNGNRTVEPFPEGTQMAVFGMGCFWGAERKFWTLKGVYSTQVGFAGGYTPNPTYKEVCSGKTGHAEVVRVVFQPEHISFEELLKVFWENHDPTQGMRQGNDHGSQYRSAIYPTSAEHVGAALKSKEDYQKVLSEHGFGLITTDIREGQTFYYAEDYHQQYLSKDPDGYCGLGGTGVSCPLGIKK

[11] = luciferase reporter signal suppression in cells – H4 neuroglioma cells, luminescence, dose response (AID 1990); assay type: functional, cell-based
[12] = Luminescence Cell-Based Dose Response HTS to Identify Inhibitors of 5'UTR Stem-Loop Driven Prion Protein mRNA Translation in H4 Neuroglioblastoma Cells. [Related pubchem assays: 1827 (Project Summary), 1813 (Primary HTS)]; assay type: functional
[13] = alpha-synuclein stem-loop luciferase translation blockers – H4 neuroglioma cells, luminescence, confirmation (AID 1988); assay type: functional, cell-based

In the case of `Cn1cc(CC(=O)Nc2cccc(C#N)c2)c2ccccc21`, the IC50 [1] is reported as > 80 µM (inactive), the IC50 [2] is reported as 51.9 µM (inactive) and the IC50 [3] is reported as > 80 µM (inactive).
For `COc1ccc(NC(=S)N2CCC(N(C)CC3CCCO3)CC2)cc1Cl` (stereo unspecified), the IC50 [1] was 3.65 µM (active), the IC50 [2] was 1.37 µM (active) and the IC50 [3] was 27.2 µM (inactive).
With `Cc1cccc(NC(=O)NNC(=O)c2cc(-c3ccccc3Cl)nc3ccccc23)c1` the AC50 (Cytochrome P450 1A2) was 15.8 µM (inconclusive), the IC50 (Orexin receptor type 2 [4]) was 16.4 µM (inactive) and the IC50 (CHO-K1) was > 66.3 µM (inactive). For the same compound, the IC50 [5] was 0.815 µM (active), the IC50 (Orexin receptor type 2 [6]) was 27.1 µM (inactive) and the IC50 [7] was 13.5 µM (inactive). The IC50 [8] was 48 µM (inactive).
For `CC(Cc1ccccc1)C(=O)O` (stereo unspecified), the EC50 [9] was > 100 µM (inactive).
In the case of `Cc1csc2c(=O)sc(NC(=O)c3ccco3)nc12`, the EC50 [9] is reported as > 100 µM (inactive).
In the case of `C=CCn1c(SCC(=O)Nc2cc3oc4ccccc4c3cc2OC)nnc1-c1cnccn1`, the IC50 (Orexin receptor type 2 [4]) is reported as 10.4 µM (inactive), the IC50 (CHO-K1) is reported as > 66.2 µM (inactive) and the IC50 [5] is reported as 0.339 µM (active). The IC50 (Orexin receptor type 2 [6]) was > 50 µM (inactive), the IC50 [7] was 3.14 µM (active) and the IC50 [8] was > 49.7 µM (inactive).
In the case of `O=[N+]([O-])c1c(Nc2ccccc2O)cc(N2CCOCC2)c2nonc12`, the IC50 [10] is reported as 67.7 µM (inactive), the EC50 [11] is reported as 25.1 µM (active) and the EC50 [12] is reported as 30.5 µM (active). For the same compound, the EC50 [13] was 111 µM (active).
For `CSc1cccc(NC(=O)C2CCCN(S(=O)(=O)c3ccc(F)cc3)C2)c1` (stereo unspecified), the IC50 (Orexin receptor type 2 [4]) was 8.4 µM (active), the IC50 (CHO-K1) was > 66.2 µM (inactive) and the IC50 [5] was 1.59 µM (active). For the same compound, the IC50 (Orexin receptor type 2 [6]) was 14.2 µM (inactive), the IC50 [7] was 10.4 µM (inactive) and the IC50 [8] was > 49.8 µM (inactive).
